# Measured values published in ChEMBL document CHEMBL1201862, “PubChem BioAssay data set” (2004).
# Calls of active or inactive are those of the source.
# How the values were obtained:
# [1] = target: Neuropeptide Y receptor type 1 (Homo sapiens, UniProt P25929); test: NPY-Y1 receptor antagonist potency, dose response, cell-based (AID 1277); assay type: functional
# Genome polyprotein = Genome polyprotein (dengue virus type 2, UniProt P29990); test: Dengue-2 NS5 methyltransferase inhibitors, primary screen, biochemical, confirmation dose response (AID 588689); assay type: functional
# [2] = target: Neuropeptide Y receptor type 2 (Homo sapiens, UniProt P49146); test: NPY-Y2 antagonist potency, selectivity check, dose response, counter-screen for NPY-Y1 antagonist project, cell-based (AID 1278); assay type: functional
# [3] = target: FAD-linked sulfhydryl oxidase ALR (Homo sapiens, UniProt P55789); test: inhibitors of human ALR sulfhydryl oxidase, dose response, biochemical, H2O2 detection, luminescence, cherry-pick (AID 493248)
# Estrogen receptor = Estrogen receptor (Homo sapiens, UniProt P03372);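 further: potency for inhibiting coactivator peptide recruitment to the receptor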
# Estrogen receptor beta = Estrogen receptor beta (Homo sapiens, UniProt Q92731);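 further: recombinant ER-beta bound to coactivator SRC1 peptide in presence of estradiol agonist; inhibitors block coactivator peptide binding and lower the FRET signal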
# [4] = target: Sphingosine 1-phosphate receptor 2 (Homo sapiens, UniProt O95136); test: Dose Response Cell Based Assay for Agonists of the S1P2 Receptor of Purchased Analogues. [Related pubchem assays: 729, 843, 854, 736 ]; assay type: functional
# cells [5] = assay type: functional
# [6] = THP-1 cell cytotoxicity, dose response, cytotoxicity control for non-replicating M. tuberculosis project (AID 489025); assay type: functional
# [7] = cytotoxicity toward NIH3T3 fibroblasts, dose response, counter-screen, cell-based, ATP luminescence, mouse fibroblasts (AID 2010); assay type: functional;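 further: cells exposed to compound for about 90 hours before reading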
# [8] = inhibitors of intracellular T. cruzi replication, confirmation, NIH3T3 host cells, beta-gal luminescence (AID 2044); assay type: functional, cell-based;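 further: intracellular parasites grown in NIH/3T3 mouse fibroblasts as host cells; luminescent beta-galactosidase reporter signal from transgenic T. cruzi replicating inside host cells; inhibitors lower the luminescence signal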
# cells [9] = test: cells
# [10] = target: T1, Microphthalmia-associated transcription factor (Homo sapiens, UniProt O75030); test: TRPM1 promoter luciferase signal decrease, dose response, MITF inhibitor project, cell-based, SK-MEL-5, cherry-picked, set 3 (AID 493073); assay type: functional
# T1 sequence (O75030 whole entry): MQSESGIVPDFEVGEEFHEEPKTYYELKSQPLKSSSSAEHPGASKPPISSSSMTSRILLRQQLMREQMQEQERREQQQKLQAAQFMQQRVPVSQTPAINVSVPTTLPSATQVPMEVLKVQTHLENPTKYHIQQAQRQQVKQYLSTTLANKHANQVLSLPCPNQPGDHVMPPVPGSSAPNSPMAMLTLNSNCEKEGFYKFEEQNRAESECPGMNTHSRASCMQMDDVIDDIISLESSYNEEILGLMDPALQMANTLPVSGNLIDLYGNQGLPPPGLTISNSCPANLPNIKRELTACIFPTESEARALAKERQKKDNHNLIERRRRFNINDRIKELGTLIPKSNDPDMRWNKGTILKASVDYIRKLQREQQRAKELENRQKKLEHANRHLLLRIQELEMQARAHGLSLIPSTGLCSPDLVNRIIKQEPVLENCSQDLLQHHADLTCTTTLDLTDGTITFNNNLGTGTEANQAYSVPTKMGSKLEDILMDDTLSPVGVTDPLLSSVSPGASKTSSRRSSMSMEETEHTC
# Estrogen receptor, sequence (P03372 whole entry): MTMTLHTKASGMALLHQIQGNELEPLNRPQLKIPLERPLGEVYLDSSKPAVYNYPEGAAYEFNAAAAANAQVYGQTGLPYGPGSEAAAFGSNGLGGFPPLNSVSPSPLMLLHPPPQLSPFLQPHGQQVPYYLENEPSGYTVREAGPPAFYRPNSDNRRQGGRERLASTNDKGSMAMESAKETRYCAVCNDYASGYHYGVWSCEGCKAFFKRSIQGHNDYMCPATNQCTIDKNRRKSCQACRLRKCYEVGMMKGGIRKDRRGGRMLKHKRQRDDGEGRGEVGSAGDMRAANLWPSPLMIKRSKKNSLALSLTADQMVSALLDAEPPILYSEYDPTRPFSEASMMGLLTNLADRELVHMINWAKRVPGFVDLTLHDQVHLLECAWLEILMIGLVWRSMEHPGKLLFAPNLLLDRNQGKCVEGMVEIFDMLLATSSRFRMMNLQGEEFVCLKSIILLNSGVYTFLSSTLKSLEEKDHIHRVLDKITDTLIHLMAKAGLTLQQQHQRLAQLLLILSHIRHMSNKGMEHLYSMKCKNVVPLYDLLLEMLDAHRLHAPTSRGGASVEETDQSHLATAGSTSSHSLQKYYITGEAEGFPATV
# FAD-linked sulfhydryl oxidase ALR, sequence (P55789 whole entry): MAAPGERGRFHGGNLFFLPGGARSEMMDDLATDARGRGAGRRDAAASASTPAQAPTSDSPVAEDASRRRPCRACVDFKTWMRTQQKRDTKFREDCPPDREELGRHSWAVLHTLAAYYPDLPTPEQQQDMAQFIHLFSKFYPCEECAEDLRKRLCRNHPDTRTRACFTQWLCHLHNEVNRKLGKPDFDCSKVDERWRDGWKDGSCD
# Estrogen receptor beta, sequence (Q92731 whole entry): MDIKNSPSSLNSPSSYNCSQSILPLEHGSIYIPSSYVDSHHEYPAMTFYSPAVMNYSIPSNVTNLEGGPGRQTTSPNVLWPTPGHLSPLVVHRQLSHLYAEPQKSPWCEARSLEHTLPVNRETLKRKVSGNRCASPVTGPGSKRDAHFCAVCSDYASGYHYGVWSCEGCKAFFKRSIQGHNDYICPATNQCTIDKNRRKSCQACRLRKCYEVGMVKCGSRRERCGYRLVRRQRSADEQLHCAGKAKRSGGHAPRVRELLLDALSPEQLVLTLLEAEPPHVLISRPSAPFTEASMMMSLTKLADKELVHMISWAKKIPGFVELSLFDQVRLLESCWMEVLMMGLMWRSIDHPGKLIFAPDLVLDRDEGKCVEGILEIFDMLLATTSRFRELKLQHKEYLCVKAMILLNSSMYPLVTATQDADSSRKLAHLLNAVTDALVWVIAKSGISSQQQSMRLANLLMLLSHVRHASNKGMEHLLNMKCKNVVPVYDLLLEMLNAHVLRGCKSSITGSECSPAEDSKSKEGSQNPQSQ
# Genome polyprotein, sequence (P29990 2492-3391 limits assumed): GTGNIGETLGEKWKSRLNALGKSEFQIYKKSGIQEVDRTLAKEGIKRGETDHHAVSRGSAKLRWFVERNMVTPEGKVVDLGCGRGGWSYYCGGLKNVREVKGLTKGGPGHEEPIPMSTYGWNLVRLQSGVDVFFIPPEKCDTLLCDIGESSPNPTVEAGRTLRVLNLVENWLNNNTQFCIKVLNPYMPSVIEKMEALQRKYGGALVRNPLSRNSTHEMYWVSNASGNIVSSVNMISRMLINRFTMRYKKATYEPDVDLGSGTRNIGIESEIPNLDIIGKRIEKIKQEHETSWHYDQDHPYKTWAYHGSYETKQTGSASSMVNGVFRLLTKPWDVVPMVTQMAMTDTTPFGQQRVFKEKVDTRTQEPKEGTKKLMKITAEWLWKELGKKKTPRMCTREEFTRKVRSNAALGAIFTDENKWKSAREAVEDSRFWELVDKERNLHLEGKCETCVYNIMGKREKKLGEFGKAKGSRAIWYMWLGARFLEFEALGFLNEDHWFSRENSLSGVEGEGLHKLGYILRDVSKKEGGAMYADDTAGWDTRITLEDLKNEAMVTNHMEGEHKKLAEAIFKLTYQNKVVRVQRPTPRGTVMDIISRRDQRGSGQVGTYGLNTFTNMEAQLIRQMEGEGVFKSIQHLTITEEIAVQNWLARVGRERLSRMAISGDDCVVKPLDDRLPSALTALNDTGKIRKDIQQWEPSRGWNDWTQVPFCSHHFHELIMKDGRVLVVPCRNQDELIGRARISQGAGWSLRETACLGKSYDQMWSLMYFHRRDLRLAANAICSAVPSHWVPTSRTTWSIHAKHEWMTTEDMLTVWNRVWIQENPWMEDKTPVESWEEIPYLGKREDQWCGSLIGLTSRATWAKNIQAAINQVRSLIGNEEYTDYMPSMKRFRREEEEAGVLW
# Neuropeptide Y receptor type 2, sequence (P49146 whole entry): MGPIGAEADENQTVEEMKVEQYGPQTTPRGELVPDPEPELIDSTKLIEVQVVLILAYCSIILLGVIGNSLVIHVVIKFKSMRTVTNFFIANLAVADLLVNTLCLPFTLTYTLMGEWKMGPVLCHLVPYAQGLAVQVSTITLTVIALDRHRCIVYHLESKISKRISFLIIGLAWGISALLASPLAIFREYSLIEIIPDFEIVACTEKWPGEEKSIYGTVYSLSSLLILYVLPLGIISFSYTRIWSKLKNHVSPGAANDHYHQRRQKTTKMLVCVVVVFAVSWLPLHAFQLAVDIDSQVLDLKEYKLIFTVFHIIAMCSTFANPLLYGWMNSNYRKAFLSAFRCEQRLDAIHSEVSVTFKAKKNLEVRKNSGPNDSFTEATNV
# Neuropeptide Y receptor type 1, sequence (P25929 whole entry): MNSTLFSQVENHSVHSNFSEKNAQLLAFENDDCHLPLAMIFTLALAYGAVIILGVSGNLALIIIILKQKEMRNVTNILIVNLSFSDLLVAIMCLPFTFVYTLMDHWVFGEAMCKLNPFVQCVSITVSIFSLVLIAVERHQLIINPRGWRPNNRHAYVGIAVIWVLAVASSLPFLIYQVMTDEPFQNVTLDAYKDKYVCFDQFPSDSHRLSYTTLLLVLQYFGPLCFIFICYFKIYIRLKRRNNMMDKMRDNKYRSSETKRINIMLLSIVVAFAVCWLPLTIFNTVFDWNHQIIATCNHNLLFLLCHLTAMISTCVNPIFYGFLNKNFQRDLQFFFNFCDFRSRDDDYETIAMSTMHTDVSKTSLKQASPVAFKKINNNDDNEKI
# Sphingosine 1-phosphate receptor 2, sequence (O95136 whole entry): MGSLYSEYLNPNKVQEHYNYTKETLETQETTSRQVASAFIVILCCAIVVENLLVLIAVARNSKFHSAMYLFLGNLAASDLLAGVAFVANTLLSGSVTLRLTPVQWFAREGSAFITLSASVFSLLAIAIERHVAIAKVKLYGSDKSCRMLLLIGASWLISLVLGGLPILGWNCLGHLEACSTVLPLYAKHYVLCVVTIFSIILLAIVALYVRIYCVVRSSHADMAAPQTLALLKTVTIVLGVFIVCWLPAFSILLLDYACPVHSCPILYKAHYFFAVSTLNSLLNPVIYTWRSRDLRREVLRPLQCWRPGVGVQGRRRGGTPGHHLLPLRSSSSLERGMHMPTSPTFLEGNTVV
smiles,measurement,setting,value
O=C(O)c1ccc(N(c2ccccc2)c2ccccc2)cc1,IC50,[1],31.9 µM (not active)
same,IC50,Genome polyprotein,60.3 µM (active)
same,IC50,[2],> 35 µM (not active)
COC(=O)c1sc2nc(-c3ccco3)ccc2c1N,AC50,[3],2.84 µM (active)
same,IC50,Estrogen receptor,> 50 µM (not active)
same,IC50,Estrogen receptor beta,34.7 µM (not active)
CC(=O)c1cccc(OCC(=O)c2cc(C)n(Cc3ccccc3)c2C)c1,EC50,[4],> 30 µM (not active)
Cc1cc(C)cc(OCC(=O)N/N=C/c2ccc([N+](=O)[O-])o2)c1,IC50,cells [5],2.7 µM (active)
same,CC50,[6],31.5 µM (active)
same,EC50,[7],33.5 µM (active)
same,EC50,[8],< 0.1 µM (active)
same,EC50,cells [9],0.153 µM (active)
same,AC50,[10],7.12 µM (active)
